Laboratory results reported in patent US10550108B2, “Poly(ADP-ribose) polymerase 1 inhibitors structurally unrelated to NAD” (Institute for Cancer Research, priority 2014, dated 2020).
Entries after “also recorded” stand apart in the source; their conditions may differ.

Tests used:
[1] = target: PARP-1 (Homo sapiens, UniProt P09874); test: PARP-1 activation screening assay, 384-well ELISA plate coated with histone H4; conditions: pilot screen of ICCB Known Bioactives library; pADPr ELISA signal (absorbance at 650 or 450 nm as indicator of PARP-1 activity)
Description: The screening platform included a PARP1 activation assay in plates coated with histone H4. PARP1 reactions were set up in each well of the plate in the presence of a single small molecule test compound or a positive or negative control compound. The product of the reaction between PARP1 and H4, poly-ADP-ribose, was then quantified, with absorbance at 650 nm or 450 nm used as an indicator of PARP1 activity (FIG. 2A).
A PARP-1 activation screening assay was designed using a 384-well ELISA plate coated with histone H4 protein-activator. PARP-1 reactions were set up in each well in presence of single a small molecule compound or a positive and a negative control. […] The product of these reactions, poly-(ADP)-ribose, was quantified. Absorbance at 650 or 450 nm was used as an indicator of PARP-1 activity (FIG. 2A). As the test library for this screening assay, the ICCB Known Bioactives library of 480 compounds was used, which includes all popular PARP-1 inhibitors.

[2] = test system: normal breast-derived cells HMEK; test: Cell survival assay (alamarBlue), normal cells; type: cell-based, human; conditions: 72 hr
Method: (§1) Normal cells and cancer-derived cells were plated at a density of 10^4 cells/well (100 μl) in a 96-well plate. On the next day, Olaparib, a NAD-mimetic, or 5F02, 4D11, 5A03, 5H03, 1C09, new non-NAD-like inhibitors, were added. Cells were grown for 72 hr. 20 μl/well of alamarBlue® reagent was added; fluorescence readings were taken.
(§2) The cytotoxic effects of treatment by classical inhibitor Olaparib and the new inhibitors was compared using breast cancer-derived cells BT474 and normal breast-derived cells HMEK.

[3] = test system: breast cancer-derived cells BT474; test: Cell survival assay (alamarBlue), cancer-derived cells; type: cell-based, human; conditions: 72 hr
Method: as §1, §2

PARP-1, sequence (P09874 whole entry): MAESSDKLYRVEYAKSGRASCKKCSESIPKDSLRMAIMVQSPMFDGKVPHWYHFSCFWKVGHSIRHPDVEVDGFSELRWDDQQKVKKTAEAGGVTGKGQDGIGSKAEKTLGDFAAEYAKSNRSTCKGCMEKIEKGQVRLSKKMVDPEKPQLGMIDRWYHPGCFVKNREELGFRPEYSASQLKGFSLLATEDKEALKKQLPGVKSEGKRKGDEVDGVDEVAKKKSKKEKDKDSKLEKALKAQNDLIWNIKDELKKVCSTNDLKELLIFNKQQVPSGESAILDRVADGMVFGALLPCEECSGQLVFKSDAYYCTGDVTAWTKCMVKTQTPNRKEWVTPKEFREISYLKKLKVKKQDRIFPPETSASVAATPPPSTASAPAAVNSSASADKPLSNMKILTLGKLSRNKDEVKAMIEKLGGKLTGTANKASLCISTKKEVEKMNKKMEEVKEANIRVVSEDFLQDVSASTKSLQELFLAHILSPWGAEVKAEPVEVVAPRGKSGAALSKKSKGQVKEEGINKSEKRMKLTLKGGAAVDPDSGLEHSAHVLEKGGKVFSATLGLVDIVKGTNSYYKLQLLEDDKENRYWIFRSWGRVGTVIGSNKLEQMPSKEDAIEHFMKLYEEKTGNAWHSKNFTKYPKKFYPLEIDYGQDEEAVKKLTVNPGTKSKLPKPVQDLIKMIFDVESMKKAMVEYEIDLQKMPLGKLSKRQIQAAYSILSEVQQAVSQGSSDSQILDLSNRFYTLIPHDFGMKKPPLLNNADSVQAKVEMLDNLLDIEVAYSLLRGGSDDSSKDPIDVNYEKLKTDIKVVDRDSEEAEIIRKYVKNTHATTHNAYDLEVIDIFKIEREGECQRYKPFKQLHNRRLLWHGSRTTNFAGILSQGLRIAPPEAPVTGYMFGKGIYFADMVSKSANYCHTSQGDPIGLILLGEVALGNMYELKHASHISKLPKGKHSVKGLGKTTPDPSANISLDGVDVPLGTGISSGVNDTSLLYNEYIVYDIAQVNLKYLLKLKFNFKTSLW

SMILES | Value [1] | cytotoxicity to normal cells [2] | cytotoxic effect on cancer-derived cells [3]
CCOC(=O)CN1C(=O)CC(C[C@@H](O)[C@@H]2C[C@@H](C)C[C@H](C)C2=O)CC1=O [Cycloheximide-N-ethylethanoate] | 1.89 |  | 
C=C1[C@@H](C)[C@H]2[C@H](Cc3ccccc3)NC(=O)[C@]23OC(=O)/C=C/[C@H](O)CCC[C@@H](C)C/C=C/[C@H]3[C@@H]1O [Cytochalasin B] | 2.03 |  | 
CN(C)C[C@H](O)Cn1c2ccc(Br)cc2c2cc(Br)ccc21 (racemic) [Wiskostatin] | 1.90 |  | 
NCCNS(=O)(=O)c1cccc2cnccc12 [Formula H9] | 0.05 |  | 
CC[N+](C)(CC)CCC[n+]1c(-c2ccccc2)c2cc(N)ccc2c2ccc(N)cc21.[I-].[I-] [Propidium iodide] | 0.18 |  | 
CC(C)Cn1c(=O)n(C)c(=O)c2[nH]cnc21 [IBMX] | 0.94 |  | 
C=C1O[C@@](CO)(n2cnc3c(N)ncnc32)[C@H](O)[C@@H]1O [Decoyinine] | 2.00 |  | 
Br.NC1CCc2cc(O)c(O)cc2C1 (stereo not drawn) [6,7-ADTN HBr] | 0.50 |  | 
CN(C)C(=O)C(CCN1CCC(O)(c2ccc(Cl)cc2)CC1)(c1ccccc1)c1ccccc1 [Loperamide] | 2.34 |  | 
O=c1c(O)c(-c2ccc(O)c(O)c2)oc2cc(O)cc(O)c12 [Quercetin] | 0.18 |  | 
N#C/C(=C\c1ccc(O)c(O)c1)C(N)=S [AG213 (Tyrphostin 47)] | 1.28 |  | 
O=C(c1cc(Cc2n[nH]c(=O)c3ccccc23)ccc1F)N1CCN(C(=O)C2CC2)CC1 [Olaparib] |  | killed both normal and cancer cells | eliminate cancer-derived cells at similar concentrations; also recorded: killed both normal and cancer cells
[Cl-].c1ccc2c(c1)[I+]c1ccccc1-2 [Diphenyleneiodonium Cl] | 0.20 |  | 
CNc1ccc2oc(C[C@H]3O[C@@]4(CC[C@H]3C)O[C@H]([C@H](C)C(=O)c3ccc[nH]3)[C@H](C)C[C@H]4C)nc2c1C(=O)O [Formula A-23187, A-23187] | 1.22 |  | 
COc1cccc(-c2cc(=O)c3ccccc3o2)c1N [PD 98059] | 0.69 |  | 
O=c1[nH]c2ccccc2c2ccccc12 [6(5H)-Phenanthridinone] | 0.05 |  | 
CC1(C)Oc2ccc(C#N)cc2[C@@H](OC2=CC(=O)CC2)[C@@H]1O [PCO-400] | 2.01 |  | 
